Reference: ChEMBL document CHEMBL1821570, “Inhibition of the helicase activity of the HCV NS3 protein by symmetrical dimeric bis-benzimidazoles” (Bioorg Med Chem Lett, 2011)
Activity calls are given as the source filed them. The rule behind the calls is not given here.

Key:
[1] = tested on: Hepacivirus hominis; test: Inhibition of recombinant hepatitis C virus NS3 helicase domain NTPase activity by TLC
[2] = Inhibition of recombinant hepatitis C virus NS3 helicase domain using DNA duplex S1 labelled with [gamma-32P]ATP as substrate after 30 mins; design: species or system Hepacivirus hominis
[3] = Inhibition of recombinant hepatitis C virus NS3 helicase domain using DNA duplex S(DB2)a labelled with [gamma-32P]ATP as substrate after 30 mins; design: species or system Hepacivirus hominis
[4] = Inhibition of recombinant hepatitis C virus NS3 helicase domain using DNA duplex SM1 labelled with [gamma-32P]ATP as substrate after 30 mins; design: species or system Hepacivirus hominis
[5] = Inhibition of recombinant hepatitis C virus NS3 helicase domain using DNA duplex S(DB2)b labelled with [gamma-32P]ATP as substrate after 30 mins; design: species or system Hepacivirus hominis
[6] = Inhibition of recombinant hepatitis C virus NS3 helicase domain using DNA duplex S(DB11) labelled with [gamma-32P]ATP as substrate after 30 mins; design: species or system Hepacivirus hominis
[7] = tested on: Hepacivirus hominis; test: Inhibition of recombinant hepatitis C virus NS3 helicase domain using DNA duplex SM1 labelled with [gamma-32P]ATP as substrate up to 400 after 30 mins
[8] = tested on: Hepacivirus hominis; test: Inhibition of recombinant hepatitis C virus NS3 helicase domain using DNA duplex S(DB11) labelled with [gamma-32P]ATP as substrate up to 400 after 30 mins
[9] = tested on: Hepacivirus hominis; test: Inhibition of recombinant hepatitis C virus NS3 helicase domain using DNA duplex S(DB2)b labelled with [gamma-32P]ATP as substrate up to 400 after 30 mins
[10] = tested on: Hepacivirus hominis; test: Inhibition of recombinant hepatitis C virus NS3 helicase domain using DNA duplex S1 labelled with [gamma-32P]ATP as substrate up to 400 after 30 mins
[11] = tested on: Hepacivirus hominis; test: Inhibition of recombinant hepatitis C virus NS3 helicase domain using DNA duplex S(DB2)a labelled with [gamma-32P]ATP as substrate up to 400 after 30 mins
[12] = Inhibition of recombinant hepatitis C virus NS3 helicase domain NTPase activity by TLC in presence of poly(U); design: species or system Hepacivirus hominis
[13] = tested on: Hepacivirus hominis; test: Inhibition of recombinant hepatitis C virus NS3 helicase domain assessed as the enzyme concentration at which a half of compound molecules are bound by PTI spectrofluorimetry
[14] = Inhibition of recombinant hepatitis C virus NS3 helicase domain using RNA duplex rSM2 labelled with [gamma-32P]ATP as substrate after 30 mins; design: species or system Hepacivirus hominis
[15] = tested on: Hepacivirus hominis; test: Inhibition of recombinant hepatitis C virus NS3 helicase domain NTPase activity at 400 uM by TLC in presence of poly(U)
[16] = tested on: Hepacivirus hominis; test: Inhibition of recombinant hepatitis C virus NS3 helicase domain by PTI spectrofluorimetry
[17] = Inhibition of recombinant hepatitis C virus NS3 helicase domain using DNA duplex SM2 labelled with [gamma-32P]ATP as substrate after 30 mins; design: species or system Hepacivirus hominis
[18] = tested on: Hepacivirus hominis; test: Enhancement of binding efficacy between compound-treated recombinant hepatitis C virus NS3 helicase and 32P-labelled SM1 DNA duplex after 10 mins

SMILES | inhibition [1] | IC50 [2] [µM] | IC50 [3] [µM] | IC50 [4] [µM] | IC50 [5] [µM] | IC50 [6] [µM] | inhibition [7] | inhibition [8] | inhibition [9] | inhibition [10] | inhibition [11] | IC50 [12] [µM] | Activity [13] [µM] | IC50 [14] [µM] | inhibition [15] | inhibition [16] | IC50 [17] [µM] | Activity [18]
CN1CCN(c2ccc3nc(-c4ccc5nc(CNC(=O)CCCC(=O)NCc6nc7ccc(-c8nc9ccc(N%10CCN(C)CC%10)cc9[nH]8)cc7[nH]6)[nH]c5c4)[nH]c3c2)CC1 | inactive | > 100 | 220 | 235 | 250 | 230 | – | – | – | – | – | – | – | – | – | – | – | –
CN1CCN(c2ccc3nc(-c4ccc5nc(CNC(=O)CCCCC(=O)NCc6nc7ccc(-c8nc9ccc(N%10CCN(C)CC%10)cc9[nH]8)cc7[nH]6)[nH]c5c4)[nH]c3c2)CC1 | inactive | – | 150 | 230 | 240 | 170 | – | – | – | – | – | – | – | – | – | – | – | –
CN(CCCOc1ccc(-c2nc3ccc(-c4nc5ccc(N6CCN(C)CC6)cc5[nH]4)cc3[nH]2)cc1)CCCOc1ccc(-c2nc3ccc(-c4nc5ccc(N6CCN(C)CC6)cc5[nH]4)cc3[nH]2)cc1 | inactive | 5 | 12 | 18 | 10 | 15 | – | – | – | – | – | – | – | – | – | – | – | –
CC(=O)NCc1nc2ccc(-c3nc4ccc(N5CCN(C)CC5)cc4[nH]3)cc2[nH]1 | inactive | – | – | – | – | – | inactive | inactive | inactive | inactive | inactive | – | – | – | – | – | – | –
CN1CCN(c2ccc3nc(-c4ccc5nc(CNC(=O)CCCCCC(=O)NCc6nc7ccc(-c8nc9ccc(N%10CCN(C)CC%10)cc9[nH]8)cc7[nH]6)[nH]c5c4)[nH]c3c2)CC1 | inactive | > 100 | 150 | 225 | 200 | 160 | – | – | – | – | – | – | – | – | – | – | – | –
CN1CCN(c2ccc3nc(-c4ccc5nc(CNC(=O)CCCCCCCCCCCC(=O)NCc6nc7ccc(-c8nc9ccc(N%10CCN(C)CC%10)cc9[nH]8)cc7[nH]6)[nH]c5c4)[nH]c3c2)CC1 | inactive | 10 | 7 | 7 | 12 | 8 | – | – | – | – | – | 20 | 7.3 | 1.4 | inactive | Active | 9 | Active
CN1CCN(c2ccc3[nH]c(-c4ccc5[nH]c(-c6ccc(O)cc6)nc5c4)nc3c2)CC1 | inactive | – | – | – | – | – | inactive | inactive | inactive | inactive | inactive | – | – | – | – | – | – | –
CN1CCN(c2ccc3nc(-c4ccc5nc(CNC(=O)CCCCCCCC(=O)NCc6nc7ccc(-c8nc9ccc(N%10CCN(C)CC%10)cc9[nH]8)cc7[nH]6)[nH]c5c4)[nH]c3c2)CC1 | inactive | > 100 | 150 | 210 | 140 | 140 | – | – | – | – | – | – | – | – | – | – | – | –
CN1CCN(c2ccc3nc(-c4ccc5nc(CNC(=O)CCC(=O)NCc6nc7ccc(-c8nc9ccc(N%10CCN(C)CC%10)cc9[nH]8)cc7[nH]6)[nH]c5c4)[nH]c3c2)CC1 | inactive | > 100 | 250 | 230 | 260 | 240 | – | – | – | – | – | 280 | 51 | 38 | inactive | inactive | 240 | inactive
